According to patent publication US12692269B2, “Therapeutic compounds” (Genentech, Inc., priority 2019, dated 2026):

Legend:
Format in all cases: binding
TEAD1 YAP50-100 = TEAD1 YAP50-100 (Homo sapiens, UniProt P28347); assay: TEAD1-YAP HTRF (TR-FRET) protein-protein interaction assay; settings: TEAD1, YAP peptide 50-100, HTRF; for EC50: read-out: TEAD1 YAP50-100 HTRF combined: EC50
Method in brief: (§1)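 Compounds were first allowed 30 min to bind Eu-antibody-tagged His-TEAD (YAP-binding domain, aa 217-447). Biotinylated YAP 50-100 or TAZ 13-57 peptide complexed with streptavidin-XL665 was then added for 60 min at room temperature, and loss of TR-FRET signal gave IC50 or EC50 values.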

TEAD2 YAP50-100 = TEAD2 YAP50-100 (Homo sapiens, UniProt Q15562); assay: TEAD2-YAP HTRF (TR-FRET) protein-protein interaction assay; settings: TEAD2, YAP peptide 50-100, HTRF; for EC50: read-out: TEAD2 YAP50-100 HTRF combined: EC50
TEAD2 YAP50-100, sequence (Q15562 217-447): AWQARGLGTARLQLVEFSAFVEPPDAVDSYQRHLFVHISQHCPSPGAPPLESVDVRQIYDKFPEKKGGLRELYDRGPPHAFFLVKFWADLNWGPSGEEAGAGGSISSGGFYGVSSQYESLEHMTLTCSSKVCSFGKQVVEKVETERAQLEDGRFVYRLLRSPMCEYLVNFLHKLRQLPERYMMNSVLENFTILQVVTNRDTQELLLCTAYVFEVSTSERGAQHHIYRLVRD
Method in brief: as §1

TEAD3 YAP50-100 = TEAD3 YAP50-100 (Homo sapiens, UniProt Q99594); assay: TEAD3-YAP HTRF (TR-FRET) protein-protein interaction assay; settings: TEAD3, YAP peptide 50-100, HTRF; for EC50: read-out: TEAD3 YAP50-100 HTRF combined: EC50
TEAD3 YAP50-100, sequence (Q99594 173-435 limits assumed): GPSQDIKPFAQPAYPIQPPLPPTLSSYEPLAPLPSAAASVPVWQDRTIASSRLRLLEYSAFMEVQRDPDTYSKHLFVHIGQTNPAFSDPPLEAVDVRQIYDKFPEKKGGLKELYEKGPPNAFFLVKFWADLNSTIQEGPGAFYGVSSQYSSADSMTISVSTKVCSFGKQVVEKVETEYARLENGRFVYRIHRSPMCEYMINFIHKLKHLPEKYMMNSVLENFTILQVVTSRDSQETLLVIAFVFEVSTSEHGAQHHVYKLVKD
Method in brief: as §1

TEAD4 YAP50-100 = TEAD4 YAP50-100 (Homo sapiens, UniProt Q15561); assay: TEAD4-YAP HTRF (TR-FRET) protein-protein interaction assay; settings: TEAD4, YAP peptide 50-100, HTRF; for EC50: read-out: TEAD4 YAP50-100 HTRF combined: EC50
TEAD4 YAP50-100, sequence (Q15561 217-434 limits assumed): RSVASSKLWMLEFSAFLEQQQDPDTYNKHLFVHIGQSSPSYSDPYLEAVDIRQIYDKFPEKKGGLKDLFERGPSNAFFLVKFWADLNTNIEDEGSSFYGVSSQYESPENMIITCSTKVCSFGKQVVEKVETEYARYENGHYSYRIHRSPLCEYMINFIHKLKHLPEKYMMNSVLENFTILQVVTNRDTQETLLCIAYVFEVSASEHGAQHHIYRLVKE
Method in brief: as §1

[1] = molecular target: TEAD1 TAZ (amino acids 13-57) (Homo sapiens, UniProt P28347); assay: TEAD1-TAZ HTRF (TR-FRET) protein-protein interaction assay; settings: for TEAD1 TAZ HTRF combined: Max % Inhibition: TEAD1, TAZ peptide; for EC50: TEAD1-TAZ HTRF, TR-FRET 665 nm/615 nm, read-out: TEAD1 TAZ HTRF combined: EC50
TEAD1 TAZ (amino acids 13-57), sequence (P28347 167-426 limits assumed): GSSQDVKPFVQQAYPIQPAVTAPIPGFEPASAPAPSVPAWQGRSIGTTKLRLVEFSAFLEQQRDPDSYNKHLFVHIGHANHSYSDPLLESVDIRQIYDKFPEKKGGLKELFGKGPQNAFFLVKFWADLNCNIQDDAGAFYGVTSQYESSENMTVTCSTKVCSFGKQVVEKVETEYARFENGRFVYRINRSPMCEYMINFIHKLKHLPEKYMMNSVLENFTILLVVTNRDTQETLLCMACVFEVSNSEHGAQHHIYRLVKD
Method in brief: as §1

[2] = molecular target: TEAD2 TAZ (amino acids 13-57) (Homo sapiens, UniProt Q15562); assay: TEAD2-TAZ HTRF (TR-FRET) protein-protein interaction assay; settings: for TEAD2 TAZ HTRF combined: Max % Inhibition: TEAD2, TAZ peptide; for EC50: TEAD2-TAZ HTRF, TR-FRET 665 nm/615 nm, read-out: TEAD2 TAZ HTRF combined: EC50
TEAD2 TAZ (amino acids 13-57), sequence (Q15562 217-447): as the sequence (Q15562 217-447) above
Method in brief: as §1

[3] = molecular target: TEAD3 TAZ (amino acids 13-57) (Homo sapiens, UniProt Q99594); assay: TEAD3-TAZ HTRF (TR-FRET) protein-protein interaction assay; settings: for TEAD3 TAZ HTRF combined: Max % Inhibition: TEAD3, TAZ peptide; for EC50: TEAD3-TAZ HTRF, TR-FRET 665 nm/615 nm, read-out: TEAD3 TAZ HTRF combined: EC50
TEAD3 TAZ (amino acids 13-57), sequence (Q99594 173-435 limits assumed): as the sequence (Q99594 173-435 limits assumed) above
Method in brief: as §1

[4] = molecular target: TEAD4 TAZ (amino acids 13-57) (Homo sapiens, UniProt Q15561); assay: TEAD4-TAZ HTRF (TR-FRET) protein-protein interaction assay; settings: for TEAD4 TAZ HTRF combined: Max % Inhibition: TEAD4, TAZ peptide; for EC50: TEAD4-TAZ HTRF, TR-FRET 665 nm/615 nm, read-out: TEAD4 TAZ HTRF combined: EC50
TEAD4 TAZ (amino acids 13-57), sequence (Q15561 217-434 limits assumed): as the sequence (Q15561 217-434 limits assumed) above
Method in brief: as §1

TEAD1 YAP50-100, sequence (P28347 167-426 limits assumed): as the sequence (P28347 167-426 limits assumed) above

TEAD1 YAP50-100 HTRF combined: Max % Inhibition (TEAD1 YAP50-100)	EC50 (TEAD1 YAP50-100)	TEAD2 YAP50-100 HTRF combined: Max % Inhibition (TEAD2 YAP50-100)	EC50 (TEAD2 YAP50-100)	TEAD3 YAP50-100 HTRF combined: Max % Inhibition (TEAD3 YAP50-100)	EC50 (TEAD3 YAP50-100)	TEAD4 YAP50-100 HTRF combined: Max % Inhibition (TEAD4 YAP50-100)	EC50 (TEAD4 YAP50-100)	TEAD1 TAZ HTRF combined: Max % Inhibition [1]	EC50 [1]	TEAD2 TAZ HTRF combined: Max % Inhibition [2]	EC50 [2]	TEAD3 TAZ HTRF combined: Max % Inhibition [3]	EC50 [3]	TEAD4 TAZ HTRF combined: Max % Inhibition [4]	EC50 [4]	Compound
78.0%	0.06 µM	70.0%	0.02 µM	72.5%	0.18 µM	54.0%	0.03 µM	71.5%	0.09 µM	70.0%	0.02 µM	57.5%	0.17 µM	50.5%	0.02 µM	Cc1ccnc(-c2nn3c(=O)cc(-c4ccc(C5CCCCC5)cc4)[nH]c3c2C(=O)N2CC(CF)C2)c1C [Compound 29, 5-(4-Cyclohexylphenyl)-2-(3,4-dimethylpyridin-2-yl)-3-(3-(fluoromethyl)azetidine-1-carbonyl)pyrazolo[1,5-a]pyrimidin-7(4H)-one]
71.0%	0.07 µM	61.5%	0.01 µM	65.0%	0.09 µM	45.0%	0.18 µM	64.5%	0.06 µM	61.5%	0.01 µM	51.5%	0.08 µM	31.5%	0.12 µM	Cc1c(-c2nn3c(=O)cc(-c4ccc(C5CCCCC5)cc4)[nH]c3c2C(=O)N2CC(CF)C2)ncn1C [Compound 30, 5-(4-Cyclohexylphenyl)-2-(1,5-dimethyl-1H-imidazol-4-yl)-3-(3-(fluoromethyl)azetidine-1-carbonyl)pyrazolo[1,5-a]pyrimidin-7(4H)-one]
65.0%	0.08 µM	62.0%	0.02 µM	59.0%	0.17 µM	36.0%	0.78 µM	60.5%	0.12 µM	60.5%	0.02 µM	49.5%	0.21 µM	32.0%	0.62 µM	CCn1cnc(-c2nn3c(=O)cc(-c4ccc(C5CCCCC5)cc4)[nH]c3c2C(=O)N2CC(CF)C2)c1 [Compound 31, 5-(4-Cyclohexylphenyl)-2-(1-ethyl-1H-imidazol-4-yl)-3-(3-(fluoromethyl)azetidine-1-carbonyl)pyrazolo[1,5-a]pyrimidin-7(4H)-one]
65.0%	0.05 µM	61.5%	0.01 µM	61.0%	0.06 µM	38.5%	0.38 µM	59.5%	0.05 µM	59.0%	0.01 µM	49.5%	0.06 µM	31.0%	0.29 µM	Cn1cnc(-c2nn3c(=O)cc(-c4ccc(C5CCCCC5)cc4)[nH]c3c2C(=O)N2CC(CF)C2)c1 [Compound 32, 5-(4-Cyclohexylphenyl)-3-(3-(fluoromethyl)azetidine-1-carbonyl)-2-(1-methyl-1H-imidazol-4-yl)pyrazolo[1,5-a]pyrimidin-7(4H)-one]
72.0%	0.07 µM	71.5%	0.02 µM	68.0%	0.13 µM	52.5%	0.18 µM	59.0%	0.08 µM	71.5%	0.02 µM	57.0%	0.15 µM	37.0%	0.14 µM	CCN(C)C(=O)c1nn2c(=O)cc(-c3ccc(C4CCCCC4)cc3)[nH]c2c1C(=O)N1CC(CF)C1 [Compound 35, 5-(4-Cyclohexylphenyl)-N-ethyl-3-(3-(fluoromethyl)azetidine-1-carbonyl)-N-methyl-7-oxo-4,7-dihydropyrazolo[1,5-a]pynmidine-2-carboxamide]
70.0%	0.07 µM	73.5%	0.02 µM	71.0%	0.18 µM	48.0%	1.02 µM	60.5%	0.08 µM	73.5%	0.02 µM	60.0%	0.2 µM	38.0%	0.85 µM	O=C(c1nn2c(=O)cc(-c3ccc(C4CCCCC4)cc3)[nH]c2c1C(=O)N1CC(CF)C1)N1CCCC1 [Compound 36, 5-(4-Cyclohexylphenyl)-3-(3-(fluoromethyl)azetidine-1-carbonyl)-2-(pyrrolidine-1-carbonyl)pyrazolo[1,5-a]pyrimidin-7(4H)-one]
66.0%	0.1 µM	54.5%	0.02 µM	64.0%	0.15 µM	27.5%	0.22 µM	50.0%	0.12 µM	50.0%	0.02 µM	55.0%	0.15 µM	16.5%	0.16 µM	O=C(c1c(-c2cccnc2)nn2c(=O)cc(-c3ccc(C4CCCCC4)cc3)[nH]c12)N1CC(CF)C1 [Compound 37, 5-(4-Cyclohexylphenyl)-3-(3-(fluoromethyl)azetidine-1-carbonyl)-2-(pyridin-3-yl)pyrazolo[1,5-a]pyrimidin-7(4H)-one]
64.0%	0.21 µM	61.5%	0.03 µM	65.0%	0.22 µM	41.0%	0.2 µM	47.5%	0.22 µM	64.0%	0.02 µM	61.0%	0.25 µM	37.5%	0.13 µM	O=C(c1c(-c2ccccc2)nn2c(=O)cc(-c3ccc(C4CCCCC4)cc3)[nH]c12)N1CC(CF)C1 [Compound 38, 5-(4-Cyclohexylphenyl)-3-(3-(fluoromethyl)azetidine-1-carbonyl)-2-phenylpyrazolo[1,5-a]pyrimidin-7(4H)-one]
65.0%	0.05 µM	62.0%	0.02 µM	61.5%	0.06 µM	34.5%	0.65 µM	37.5%	0.09 µM	56.5%	0.02 µM	53.5%	0.06 µM	18.0%	0.37 µM	O=C(c1c(-c2cnco2)nn2c(=O)cc(-c3ccc(C4CCCCC4)cc3)[nH]c12)N1CC(CF)C1 [Compound 39, 5-(4-Cyclohexylphenyl)-3-(3-(fluoromethyl)azetidine-1-carbonyl)-2-(oxazol-5-yl)pyrazolo[1,5-a]pyrimidin-7(4H)-one]
